Experimental data as given in patent US20220163539A1, “NLRP3 INFLAMMASOME INHIBITION” (Inflazome Limited, priority 2019, published 2022).

Legend:
[1] = target: T1, NLRP3 in NLRP3 over-expressing HEK293 cell lysate supernatants (Homo sapiens, UniProt Q96P20); experiment: Radioligand binding assay with [3H]-MCC7840, gel filtration; details: 200 nM [3H]-MCC7840, 700 μg protein, 4 hrs at RT; minimum of curve fit constrained; read-out: estimated IC50, competition with [3H]-MCC7840
T1 construct: expressed in transfected cells; host or cells: HEK293
T1 sequence (Q96P20 whole entry): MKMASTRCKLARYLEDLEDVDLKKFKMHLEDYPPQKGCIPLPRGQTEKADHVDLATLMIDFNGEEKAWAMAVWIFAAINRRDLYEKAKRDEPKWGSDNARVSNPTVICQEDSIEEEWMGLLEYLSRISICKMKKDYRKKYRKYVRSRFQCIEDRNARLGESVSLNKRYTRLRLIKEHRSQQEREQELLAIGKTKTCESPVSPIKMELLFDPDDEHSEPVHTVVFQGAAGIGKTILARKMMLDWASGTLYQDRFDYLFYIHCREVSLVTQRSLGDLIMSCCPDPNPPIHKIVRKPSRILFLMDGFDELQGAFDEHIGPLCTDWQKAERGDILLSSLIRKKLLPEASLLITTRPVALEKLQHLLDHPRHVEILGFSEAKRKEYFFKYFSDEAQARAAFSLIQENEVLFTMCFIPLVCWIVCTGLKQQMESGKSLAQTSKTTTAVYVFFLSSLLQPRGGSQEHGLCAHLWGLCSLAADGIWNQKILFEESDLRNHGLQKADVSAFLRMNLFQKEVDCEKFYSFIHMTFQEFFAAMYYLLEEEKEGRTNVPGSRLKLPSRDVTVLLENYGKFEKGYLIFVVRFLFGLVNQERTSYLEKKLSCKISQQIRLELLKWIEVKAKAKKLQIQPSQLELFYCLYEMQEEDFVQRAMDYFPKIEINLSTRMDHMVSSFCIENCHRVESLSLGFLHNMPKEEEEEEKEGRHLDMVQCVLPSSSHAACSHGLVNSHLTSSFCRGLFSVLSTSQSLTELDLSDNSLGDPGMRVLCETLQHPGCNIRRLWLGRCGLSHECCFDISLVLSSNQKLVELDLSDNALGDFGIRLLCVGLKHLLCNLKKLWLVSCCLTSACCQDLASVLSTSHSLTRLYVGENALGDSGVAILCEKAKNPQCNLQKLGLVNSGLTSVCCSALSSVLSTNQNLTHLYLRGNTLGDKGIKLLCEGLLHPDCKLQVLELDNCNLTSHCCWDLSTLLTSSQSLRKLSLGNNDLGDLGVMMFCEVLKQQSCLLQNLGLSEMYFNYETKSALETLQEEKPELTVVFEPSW
Method: As NLRP3 is a cytoplasmic protein a conventional filtration binding assay method could not be used to separate free vs bound radiolabel from cell lysates.
Cell pellets were defrosted over ice and diluted one in two with binding buffer. […] Supernatant was removed and stored at −20° C. Protein determination was performed on these samples using the Pierce BCA kit following the manufacturer's instructions.
Binding buffer volume was dependent on the volume of supernatant used in the assay. Samples were combined together and incubated, with shaking, for 4 hrs @ room temperature.
Briefly, the PD MultiTrap plates were spun down at room temperature (RT), 800 g, for 1 minute to remove the storage buffer. They were washed five times with 300 μl/well binding buffer, 800 g, RT for 1 minute.
80 μl of sample was added per well, spun down at 400 g for 1 minute. 50 μl of the flow through was added to 145 μl Microscint-20 in Optiplates. The plate was shaken for approximately 30 minutes at RT prior to reading in a Perkin Elmer TopCount. Data was analysed using GraphPad Prism.
The specific binding was determined by subtracting the non-specific binding from the total binding.

[2] = test system: IL-1β release from THP-1 cells; experiment: IL-1β release assay in THP-1 cells (LPS and nigericin stimulation); details: Homo sapiens, THP-1, read-out: IC50 for inhibition of release of IL-1β from THP-1 cells
From the text: An IL-1β release assay in THP-1 cells was used to assess the ability of the different molecules to inhibit inflammasome-mediated cytokine secretion.

Compound: Nc1ncnc2c1ncn2[C@@H]1O[C@H](COP(=O)(O)OP(=O)(O)OP(=O)(O)O)[C@@H](O)[C@H]1O [ATP]
- IC50 [1]: 75000 µM

Compound: CC(C)n1ccc(S(=O)(=O)NC(=O)Nc2c3c(cc4c2CCC4)CCC3)n1 [MCC7840]
- IC50 [2]: 0.11 µM

Compound: CC(C)(O)c1coc(S(=O)(=O)NC(=O)Nc2c3c(cc4c2CCC4)CCC3)c1 [MCC950]
- IC50 [2]: 0.027 µM
